For experiment [1], the target named is T1, purified, recombinant human DPIV (Homo sapiens, UniProt P27487).
T1 construct: made in house; host or cells: Sf9 insect cells
Kind of experiment: Inhibition of enzymatic activity of DPIV (fluorogenic substrate hydrolysis). It counts as biochemical. The conditions noted are these: highest test item concentration 25 μM. As to the method: (§1) The inhibition of the enzymatic activity of DPIV and related enzymes was measured by using purified, recombinant human DPIV (purified from transfected Sf9 cells, final enzyme concentration approx. 1 nM) as well as purified, recombinant DP8 and DP9 (purchased from Biomol). The assay was performed in 0.05M TRIS/HCl puffer pH 7.5, supplemented with 0.05% Triton (v/v), 0.05% BSA (w/v), 2 mM MgCl2.
(§2) The enzymatic activity of DPIV was assessed by the hydrolysis of the fluorogenic substrates H-Gly-Pro-4-amino-7-methyl coumarine (abbreviation of fluorogenic group AMC; purchased from Bachem) or (Ala-Pro)2-Rhodamine 110 (abbreviation R110). The final substrate concentrations were 50 μM or 1 μM, respectively.
(§3) The assay was performed in white microtitre plates for fluorescence measurements. The test items, substrate and enzyme were diluted in assay buffer. The highest test item concentration used was 25 μM. For the calculation of IC50 values, at least 16 log 2-dilutions of each test item were analyzed. As controls, the DPIV activity in the absence of test items as well as the spontaneous hydrolysis of the substrate was determined.
(§4) The release of the fluorescent hydrolysis product AMC was measured at an excitation wavelength of 380 nm and an emission wavelength of 460 nm by using a microtitre fluorescence reader immediately after substrate addition as well as after 30, 60 and 120 min. The hydrolysis of the substrate (Ala-Pro)2-Rhodamine 110 was determined at an exitation wavelength of 488 nm and emission wavelength of 530 nm.

Experiment [2] deals with T2, aminopeptidase N (APN), purified recombinant human enzyme (Homo sapiens, UniProt P15144).
T2 construct: made in house; host or cells: ECV cells (transfected)
T2 sequence (P15144 whole entry): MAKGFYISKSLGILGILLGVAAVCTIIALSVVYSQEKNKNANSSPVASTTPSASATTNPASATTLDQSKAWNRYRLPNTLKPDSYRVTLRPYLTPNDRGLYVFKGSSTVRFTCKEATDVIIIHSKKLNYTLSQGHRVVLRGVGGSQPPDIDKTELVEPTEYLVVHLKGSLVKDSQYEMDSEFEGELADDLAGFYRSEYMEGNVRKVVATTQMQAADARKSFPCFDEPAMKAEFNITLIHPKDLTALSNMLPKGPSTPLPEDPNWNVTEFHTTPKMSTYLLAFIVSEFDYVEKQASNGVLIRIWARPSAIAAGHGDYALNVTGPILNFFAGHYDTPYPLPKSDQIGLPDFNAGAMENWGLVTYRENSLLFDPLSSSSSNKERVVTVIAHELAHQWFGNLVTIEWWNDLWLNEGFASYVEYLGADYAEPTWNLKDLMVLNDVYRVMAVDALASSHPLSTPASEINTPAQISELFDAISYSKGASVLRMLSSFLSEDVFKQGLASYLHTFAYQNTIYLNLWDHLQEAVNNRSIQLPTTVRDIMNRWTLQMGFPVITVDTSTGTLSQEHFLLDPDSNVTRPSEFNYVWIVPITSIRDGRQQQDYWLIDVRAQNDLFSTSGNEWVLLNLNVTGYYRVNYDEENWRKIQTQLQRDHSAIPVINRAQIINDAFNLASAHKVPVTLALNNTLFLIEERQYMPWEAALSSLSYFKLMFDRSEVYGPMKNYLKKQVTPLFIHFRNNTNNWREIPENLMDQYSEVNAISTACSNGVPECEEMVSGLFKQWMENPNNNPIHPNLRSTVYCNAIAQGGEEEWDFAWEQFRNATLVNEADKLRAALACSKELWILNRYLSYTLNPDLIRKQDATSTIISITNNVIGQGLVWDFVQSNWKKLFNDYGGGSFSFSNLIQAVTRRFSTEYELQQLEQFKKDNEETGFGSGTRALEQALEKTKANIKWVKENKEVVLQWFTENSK
The experiment is described as follows: Inhibition of enzymatic activity of aminopeptidase N (fluorogenic substrate hydrolysis). It is filed as biochemical. The conditions noted are these: highest test item concentration 25 μM. The protocol: The inhibition of the enzymatic activity of aminopeptidase N (APN) was measured by using purified, recombinant human enzyme (purified from transfected ECV cells, final enzyme concentration approx. 1 nM). […] The assay was performed in 0.05M TRIS/HCl puffer pH 7.5, supplemented with 0.05% Triton (v/v), 0.05% BSA (w/v), 2 mM MgCl2.
The aminopeptidase acitivities wer assessed by the hydrolysis of the fluorogenic substrates H-Ala-4-amino-7-methyl coumarine (abbreviation of fluorogenic group AMC; purchased from Bachem) or (Ala-)2-Rhodamine 110 (abbreviation R110). The final substrate concentrations were again 50 and 1 μM, respectively.
as §3
The release of the fluorescent hydrolysis products AMC and R110 was measured as described above for DPIV substrates.

Experiment [3] concerns purified, recombinant DP8 and DP9. Kind of experiment: Inhibition of enzymatic activity of DP8/9. It is filed as biochemical. The note with it: highest test item concentration 25 μM. The protocol:
as §1, §2, §3, §4

The target in experiment [4] is T3, cytosolic aminopeptidase (cAAP) purified from Jurkat cells (Homo sapiens, UniProt P55786).
T3 construct: The cytosolic aminopeptidase (cAAP) was purified from Jurkat cells; endogenous in cells; host or cells: Jurkat cells (enzyme purified from them)
T3 sequence (P55786 whole entry): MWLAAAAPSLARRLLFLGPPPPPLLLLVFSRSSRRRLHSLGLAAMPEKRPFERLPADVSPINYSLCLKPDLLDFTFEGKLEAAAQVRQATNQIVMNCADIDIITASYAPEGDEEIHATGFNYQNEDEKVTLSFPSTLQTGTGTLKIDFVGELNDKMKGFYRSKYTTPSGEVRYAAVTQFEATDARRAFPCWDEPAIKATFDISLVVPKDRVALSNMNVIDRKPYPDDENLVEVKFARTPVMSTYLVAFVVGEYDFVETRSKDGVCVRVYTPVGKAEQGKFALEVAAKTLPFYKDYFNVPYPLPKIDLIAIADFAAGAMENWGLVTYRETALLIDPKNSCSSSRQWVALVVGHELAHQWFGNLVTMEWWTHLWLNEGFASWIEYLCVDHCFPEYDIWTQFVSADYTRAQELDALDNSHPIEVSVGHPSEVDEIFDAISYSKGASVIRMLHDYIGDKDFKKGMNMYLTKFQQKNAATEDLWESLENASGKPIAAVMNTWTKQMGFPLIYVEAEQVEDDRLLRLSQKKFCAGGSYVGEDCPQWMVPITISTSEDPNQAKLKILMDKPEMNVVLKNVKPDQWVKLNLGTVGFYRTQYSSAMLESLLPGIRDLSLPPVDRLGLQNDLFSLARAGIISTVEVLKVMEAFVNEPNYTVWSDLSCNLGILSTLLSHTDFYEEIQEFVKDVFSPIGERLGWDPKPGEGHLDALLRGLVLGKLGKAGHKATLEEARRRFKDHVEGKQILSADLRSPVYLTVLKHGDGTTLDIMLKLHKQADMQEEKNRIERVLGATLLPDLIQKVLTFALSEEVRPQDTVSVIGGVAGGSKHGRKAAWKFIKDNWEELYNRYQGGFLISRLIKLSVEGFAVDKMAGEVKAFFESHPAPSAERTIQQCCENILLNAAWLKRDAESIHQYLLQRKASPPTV
Kind of experiment: Inhibition of enzymatic activity of cytosolic aminopeptidase (cAAP). It is filed as biochemical. The conditions noted are these: highest test item concentration 25 μM.

The next experiment relates to T lymphocytes (T cells). Kind of experiment: Suppression of DNA synthesis of PHA-stimulated T lymphocytes. It is filed as cell-based. The conditions noted are these: tritium thymidine incorporation, read-out: Supp. DNA Synt. T-cell IC50. The protocol: Peripheral blood mononuclear cells (PBMC) from healthy human volunteers were freshly isolated by density gradient centrifugation. T lymphocytes (T cells) were isolated from PBMC fractions via nylon wool adherence. Both cell populations were cultured in serum free lymphocyte medium (AIMV medium, Invitrogen) and stimulated by addition of 1 μg/ml Phytohemagglutinine for 48 hours in 96 well flat-bottom microtiter plates. Test compounds were added at concentration ranges from 0.1 up to 250 μM over the total assay period.
DNA synthesis of proliferating PBMC was assessed by incorporation of nucleotide analogue bromdesoxyuridine (BrdU) and subsequent detection of BrdU by ELISA technique (Cell Proliferation Biotrak™ ELISA system, GE Health Care) according to the protocol of the manufacturer. DNA synthesis of proliferating T cells was determined by incorporation of radio labelled tritium thymidine and subsequent radio detection.
Data output was based on raw data and calculation of relative proliferation response in relation to PHA-activated T cells in the absence of test compound (100% control). The IC50 value of proliferation suppression was assessed by graphical evaluation.
(In general: Uptake of a labelled nucleoside into DNA is a usual measure of proliferation.)

The next experiment deals with NHEK cells. Kind of experiment: Inhibition of DNA synthesis and proliferation of normal human epidermal keratinocytes (NHEK). It counts as cell-based. The note with it: EGF-stimulated NHEK, BrdU incorporation, read-out: Supp. DNA Synt. NHEK IC50. As to the method:
NHEK cells (primary cells from person) were purchased from PromoCell. For these assay the adherent cells were cultured in serum-free Keratinocyte Growth medium 2 supplemented with epidermal growth factor (EGF) and bovine pituitary extract for 48 hours in flat-bottom microtiter plates. EGF stimulates the DNA synthesis and proliferation of these cells. Test items were added in concentrations from 0.1 up to 100 μM.
The DNA synthesis was assessed by incorporation of bromdesoxyuridine (BrdU) and subsequent detection of BrdU by ELISA technique. Based on these raw data the relative proliferation response in relation to cells cultured in the absence of test compound (100% control) was calculated. IC50 values of proliferation suppression were assessed by computer-assisted graphical evaluation.

The test system of a further experiment is SZ95 cells. The experiment is described as follows: Inhibition of DNA synthesis and proliferation of immortalized human sebocytes SZ95. It is filed as cell-based. The note with it: EGF-stimulated SZ95 sebocytes, tritium thymidine incorporation, read-out: Supp. DNA Synt. SZ95 IC50. The protocol:
The immortalized human sebocyte line SZ95 was provided by Prof. C Zouboulis [C C Zouboulis, H Seltmann, H Neitzel, C E Orfanos, Establishment and characterization of an immortalized human sebaceous gland cell line (SZ95). J. Invest. Dermatol. 113(6):1011-1020 (1999), the entire disclosure of which is incorporated by reference herein]. These adherent growing cells were cultured in serum-free Sebomed Complete (Biochrom). Recombinant EGF was added in order to stimulate DNA synthesis and proliferation of the SZ95 cells. Test items were added in concentrations from 0.1 up to 100 μM.
The DNA synthesis of proliferating cells was detected by incorporation of radiolabelled tritium thymidine (3HT) and counting at a beta counter. Based on these raw data the relative proliferation response in relation to cells cultured in the absence of test compound (100% control) was calculated. IC50 values of proliferation suppression were assessed by computer-assisted graphical evaluation.

Setting [5] is: PHA-stimulated human T cells, 48 hours.

The results in this text go back to patent US20120028995A1, “NOVEL COMPOUNDS FOR MEDICAL USE AS PEPTIDASE EFFECTORS” (IMTM GMBH, priority 2010, published 2012).

Each structure is given as a SMILES string. Like-named read-outs stand apart in the source and are kept apart here.

T1 sequence (P27487 whole entry): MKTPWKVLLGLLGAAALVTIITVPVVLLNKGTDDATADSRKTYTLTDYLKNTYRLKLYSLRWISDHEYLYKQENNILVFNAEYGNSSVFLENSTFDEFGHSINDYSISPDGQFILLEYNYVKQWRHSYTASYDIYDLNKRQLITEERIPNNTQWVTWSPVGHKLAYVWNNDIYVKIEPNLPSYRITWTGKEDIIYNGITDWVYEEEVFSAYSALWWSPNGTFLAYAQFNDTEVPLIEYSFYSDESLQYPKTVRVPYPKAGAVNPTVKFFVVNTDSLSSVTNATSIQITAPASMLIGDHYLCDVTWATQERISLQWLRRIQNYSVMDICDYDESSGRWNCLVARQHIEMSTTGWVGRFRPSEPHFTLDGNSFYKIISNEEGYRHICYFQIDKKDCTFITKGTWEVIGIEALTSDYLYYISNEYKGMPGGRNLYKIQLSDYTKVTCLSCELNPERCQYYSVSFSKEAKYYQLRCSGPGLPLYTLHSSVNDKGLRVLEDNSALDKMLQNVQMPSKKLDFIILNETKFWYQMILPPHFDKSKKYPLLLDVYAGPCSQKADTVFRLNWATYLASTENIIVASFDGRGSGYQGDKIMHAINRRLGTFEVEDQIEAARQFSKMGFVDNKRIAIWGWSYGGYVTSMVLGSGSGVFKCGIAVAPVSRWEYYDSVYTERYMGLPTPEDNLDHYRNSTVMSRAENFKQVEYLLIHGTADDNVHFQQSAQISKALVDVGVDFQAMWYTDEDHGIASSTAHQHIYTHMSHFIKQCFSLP

`CC(C)(C)OC(=O)NC(CNC(=O)c1cccc(NC(=O)C(O)C(COCc2ccccc2)NC(=O)OC(C)(C)C)c1)Cc1cc(F)ccc1F` (centres unmarked) [Compound C19.015]: the “meas. IC50 (DPIV)” value in experiment [1] is recorded as “no in- hibition”. In addition, the “meas. IC50 (APN)” value in experiment [2] is listed as “no in- hibition”. Besides, in experiment [3], the “meas. IC50 (DP8/9)” value is given as “no in- hibition”. The “meas. IC50 (cAAP)” value in experiment [4] was “no in- hibition”. In addition, the concentration for half-maximal inhibition (IC50) (in general, the concentration that gives 50% inhibition) was 8 µM in the experiment with T lymphocytes (T cells) (Homo sapiens, T-cell, 48 h); 15.9 µM with NHEK cells (Homo sapiens, NHEK, 48 h); 5.75 µM in the experiment on SZ95 cells (Homo sapiens).

Regarding `CC(C)(CNC(=O)CC(Cc1cc(F)ccc1F)NC(=O)C(C)(C)C)CNC(=O)C(O)C(COCc1ccccc1)NC(=O)C(C)(C)C` (centres unmarked) [Compound C19.016], the “meas. IC50 (DPIV)” value in experiment [1] was “no in- hibition”. In addition, the “meas. IC50 (APN)” value in experiment [2] is given as “no in- hibition”. Besides, the “meas. IC50 (DP8/9)” value in experiment [3] is reported as “no in- hibition”. Moreover, the “meas. IC50 (cAAP)” value in experiment [4] is “no in- hibition”. Besides, the IC50 with T lymphocytes (T cells) (Homo sapiens, T-cell, 48 h) was determined as 15.7 µM; in the experiment on NHEK cells (Homo sapiens, NHEK, 48 h), 37.9 µM; in the experiment on SZ95 cells (Homo sapiens) it was 49.2 µM.

Take `CCCC(=O)NC(CC(=O)NCC(C)(C)CNC(=O)C(O)C(COCc1ccccc1)NC(=O)CCC)Cc1cc(F)ccc1F` (centres unmarked) [Compound C19.017]: the “meas. IC50 (DPIV)” value in experiment [1] is on record as “no in- hibition”. Further, the “meas. IC50 (APN)” value in experiment [2] is on record as “no in- hibition”. The “meas. IC50 (DP8/9)” value in experiment [3] is recorded as “no in- hibition”. Further, the “meas. IC50 (cAAP)” value in experiment [4] is on record as “no in- hibition”. Besides, the half-inhibitory concentration (IC50) was 30.5 µM in the experiment on T lymphocytes (T cells) (Homo sapiens, T-cell, 48 h); 64.6 µM in the experiment on NHEK cells (Homo sapiens, NHEK, 48 h); at least 173 µM with SZ95 cells (Homo sapiens).

Turning to `COc1ccc(COCC(NC(=O)C(C)(C)C)C(OCc2ccc(OC)cc2)C(=O)NCC(C)(C)CNC(=O)CC(Cc2cc(F)ccc2F)NC(=O)C(C)(C)C)cc1` (centres unmarked) [Compound C19.018], the “meas. IC50 (DPIV)” value in experiment [1] was “no in- hibition”. The “meas. IC50 (APN)” value in experiment [2] was “no in- hibition”. In addition, the “meas. IC50 (DP8/9)” value in experiment [3] is “no in- hibition”. Also, the “meas. IC50 (cAAP)” value in experiment [4] is “no in- hibition”. Besides, the IC50 in the experiment on T lymphocytes (T cells) (Homo sapiens, T-cell, 48 h) was 3.3 µM; in the experiment on NHEK cells (Homo sapiens, NHEK, 48 h) it was 9.9 µM; in the experiment with SZ95 cells (Homo sapiens) it was 9.1 µM.

With `CC(C)(CNC(=O)CC(Cc1cc(F)ccc1F)NC(=O)OC(C)(C)C)CNC(=O)C(OC(=O)C(C)(C)C)C(COCc1ccccc1)NC(=O)OC(C)(C)C` (centres unmarked) [Compound C19.019], the “meas. IC50 (DPIV)” value in experiment [1] was “no in- hibition”. Besides, the “meas. IC50 (APN)” value in experiment [2] is listed as “no in- hibition”. For the same compound, the “meas. IC50 (DP8/9)” value in experiment [3] was “no in- hibition”. For the same compound, the “meas. IC50 (cAAP)” value in experiment [4] is “no in- hibition”. Besides, the IC50 is 122 µM in the experiment with T lymphocytes (T cells) (Homo sapiens, T-cell, 48 h); at least 131 µM in the experiment with NHEK cells (Homo sapiens, NHEK, 48 h); 70.6 µM in the experiment on SZ95 cells (Homo sapiens).

Consider `CC(C)(CNC(=O)CC(Cc1cc(F)ccc1F)NC(=O)OC(C)(C)C)CNC(=O)C(O)C(COCc1ccccc1)NC(=O)OC(C)(C)C` (centres unmarked) [Compound C19.023], for which the “meas. IC50 (DPIV)” value in experiment [1] is “No in- hibition”. In experiment [2], the “meas. IC50 (APN)” value is given as “no in- hibition”. Further, the “meas. IC50 (DP8/9)” value in experiment [3] was “no in- hibition”. Moreover, the “meas. IC50 (cAAP)” value in experiment [4] was “no in- hibition”. Moreover, the half-maximal inhibitory concentration (IC50) in the experiment with T lymphocytes (T cells) (Homo sapiens, T-cell, 48 h) was 11.5 µM; with NHEK cells (48 hours), 41 µM; with SZ95 cells (Homo sapiens) it was 15.9 µM.

On to `CC(C)(CNC(=O)CC(Cc1cc(F)ccc1F)NC(=O)OC(C)(C)C)CNC(=O)C(O)C(COCc1ccccc1)NC(=O)OC(C)(C)C` (centres unmarked) [Compound C19.024], for which the “meas. IC50 (DPIV)” value in experiment [1] was “No in- hibition”. In experiment [2], the “meas. IC50 (APN)” value is “no in- hibition”. Also, the “meas. IC50 (DP8/9)” value in experiment [3] is given as “no in- hibition”. Besides, the “meas. IC50 (cAAP)” value in experiment [4] is listed as “no in- hibition”. For the same compound, the IC50 was 11.4 µM in the experiment with T lymphocytes (T cells) (setting [5]), 21.1 µM in the experiment on NHEK cells (48 hours) and 13.3 µM in the experiment with SZ95 cells.

Regarding `CC(C)(CNC(=O)CC(Cc1cc(F)ccc1F)NC(=O)OC(C)(C)C)CNC(=O)C(O)C(COCc1ccccc1)NC(=O)OC(C)(C)C` (centres unmarked) [Compound C19.025], the “meas. IC50 (DPIV)” value in experiment [1] is listed as “No in- hibition”. For the same compound, the “meas. IC50 (APN)” value in experiment [2] is “no in- hibition”. Also, the “meas. IC50 (DP8/9)” value in experiment [3] was “no in- hibition”. In experiment [4], the “meas. IC50 (cAAP)” value was “no in- hibition”. The IC50 in the experiment on T lymphocytes (T cells) (setting [5]) was found to be 12.3 µM; in the experiment on NHEK cells (48 hours), 17.3 µM; with SZ95 cells, 15.4 µM.
